Data from PMC8457330 (Journal of medicinal chemistry, 2021).

Key:
SARS-CoV-2 = assay: Antiviral activity, quantitative VeroE6 cell-based assay with RNA-qPCR; details: VeroE6 cells, EC50 ratio versus compound 1
SARS-CoV 3CLpro = SARS-CoV 3CLpro (Severe acute respiratory syndrome coronavirus, UniProt P0C6X7); assay: biochemical
SARS-CoV-2 3CLpro = SARS-CoV-2 3CLpro (Severe acute respiratory syndrome coronavirus 2, UniProt P0DTD1); type: biochemical
SARS-CoV = details: read-out: SARS-CoV antiviral EC50; VeroE6 cells; cited from earlier work

SMILES	fold reduction in antiviral activity compared to 1 (SARS-CoV-2)	IC50 (SARS-CoV 3CLpro)	other results
O=C(Oc1cncc(Cl)c1)c1cccc2c1CCN2 [Compound 2, 5-chloropyridin-3-yl indoline-4-carboxylate]	5 fold	190 nM	–
C=CCn1ccc2c(C(=O)Oc3cncc(Cl)c3)cccc21 [Compound 7d, 5-chloropyridin-3-yl 1-allyl-1H-indole-4-carboxylate]	~5 fold	–	fold improvement in inhibitory potency over 1 (SARS-CoV-2 3CLpro; versus compound 1): over 5 fold
C=CCc1cn(CC=C)c2cccc(C(=O)Oc3cncc(Cl)c3)c12 [Compound 7e, 5-chloropyridin-3-yl 1,3-diallyl-1H-indole-4-carboxylate]	–	–	fold reduction in enzyme inhibitory activity (SARS-CoV-2 3CLpro; bis-allyl 7e versus 7d): 5 fold
O=C(Oc1cncc(Cl)c1)c1cccc2[nH]ccc12 [Compound 1, 5-chloropyridin-3-yl 1H-indole-4-carboxylate]	–	–	EC50 (SARS-CoV): 6.9 µM
O=C(Oc1cncc(Cl)c1)c1ccc2[nH]ccc2c1 [Compound 7a, 5-chloropyridin-3-yl 1H-indole-5-carboxylate]	–	405 nM	–
